Assay [1] concerns rabbit serum obtained by immunizing with SARS-CoV strain Frankfurt 1. The class given is binding.
Assay [2] deals with control serum LUMC (pooled serum of ten healthy hospital workers). The class given is binding, human.
In assay [3] the test system is control serum Blood-bank (commercial negative donor pooled serum). The class given is binding, human.

Experimental findings from US20060154243A1 (priority 2003, published 2006) are described below.

As to IVLTCISLCSCICTV, in assay [1], the “Rabbit serum linear peptides” value came out at 0.1 and the “Rabbit serum looped peptides” value came out at 0.6.

Consider DFYLCFLAFLLFLVL, for which, in assay [1], the “Rabbit serum linear peptides” value amounted to 0.3 and the “Rabbit serum looped peptides” value was 0.4. In assay [2], the “Control serum LUMC linear peptides” value amounted to 0.4 and the “Control serum LUMC looped peptides” value was determined as 0.6. Moreover, in assay [3], the “Control Serum Blood-Bank Looped peptides” value came out at 0.6 and the “Control serum Blood-bank linear peptides” value worked out at 0.7.

Regarding QSTPIVVQMTKLATT, in assay [1], the “Rabbit serum linear peptides” value came out at 0.0 and the “Rabbit serum looped peptides” value was 0.6.

PIILRLGSQLSLSMA: in assay [1], the “Rabbit serum linear peptides” value worked out at 0.1 and the “Rabbit serum looped peptides” value is listed as 0.5.

As to MNELTLIDFYLCFLA, in assay [1], the “Rabbit serum linear peptides” value came to 0.4 and the “Rabbit serum looped peptides” value amounted to 0.5. Besides, in assay [2], the “Control serum LUMC linear peptides” value was 1.1 and the “Control serum LUMC looped peptides” value is 0.9. Besides, in assay [3], the “Control Serum Blood-Bank Looped peptides” value is 0.5 and the “Control serum Blood-bank linear peptides” value is recorded as 0.7.

Take PKVYPIILRLGSQLS: in assay [1], the “Rabbit serum linear peptides” value was determined as 0.1 and the “Rabbit serum looped peptides” value is 0.4.

Take STPIVVQMTKLATTE: in assay [1], the “Rabbit serum linear peptides” value turned out to be 0.1 and the “Rabbit serum looped peptides” value is 0.5.

Turning to SQLSLSMARRNLDSL, in assay [1], the “Rabbit serum linear peptides” value is reported as 0.1 and the “Rabbit serum looped peptides” value is listed as 0.4.

As to YPIILRLGSQLSLSM, in assay [1], the “Rabbit serum linear peptides” value is given as 0.2 and the “Rabbit serum looped peptides” value worked out at 0.4.

Consider RLGSQLSLSMARRNL, for which, in assay [1], the “Rabbit serum linear peptides” value came to 0.1 and the “Rabbit serum looped peptides” value turned out to be 2.5.

For GQNSADPKVYPIILR, in assay [1], the “Rabbit serum linear peptides” value is reported as 0.1 and the “Rabbit serum looped peptides” value worked out at 0.6.

For the sequence LCSCICTVVQRCASN, in assay [1], the “Rabbit serum linear peptides” value is reported as 0.1 and the “Rabbit serum looped peptides” value is reported as 1.1.

With KLLIVLTCISLCSCI, in assay [1], the “Rabbit serum linear peptides” value is listed as 0.0 and the “Rabbit serum looped peptides” value is on record as 0.5.

Consider SLEARAFQSTPIVVQ, for which, in assay [1], the “Rabbit serum linear peptides” value stood at 0.1 and the “Rabbit serum looped peptides” value turned out to be 0.6.

With ASNKPHVLEDPCKVQ, in assay [1], the “Rabbit serum linear peptides” value came to 0.8 and the “Rabbit serum looped peptides” value was 0.9.

Regarding TTEELPDEFVVVTAK, in assay [1], the “Rabbit serum linear peptides” value was 0.0 and the “Rabbit serum looped peptides” value is recorded as 0.5.

On to AFQSTPIVVQMTKLA, for which, in assay [1], the “Rabbit serum linear peptides” value is 0.1 and the “Rabbit serum looped peptides” value was found to be 0.5.

Regarding RRNLDSLEARAFQST, in assay [1], the “Rabbit serum linear peptides” value was 0.3 and the “Rabbit serum looped peptides” value stood at 0.5.

On to DPQIQLTITRMEDAM, for which, in assay [1], the “Rabbit serum linear peptides” value stood at 0.1 and the “Rabbit serum looped peptides” value was found to be 0.3.

As to TPIVVQMTKLATTEE, in assay [1], the “Rabbit serum linear peptides” value is recorded as 0.1 and the “Rabbit serum looped peptides” value is given as 0.4.

For ARAFQSTPIVVQMTK, in assay [1], the “Rabbit serum linear peptides” value is on record as 0.2 and the “Rabbit serum looped peptides” value was 0.7.

Consider VYPIILRLGSQLSLS, for which, in assay [1], the “Rabbit serum linear peptides” value was 0.6 and the “Rabbit serum looped peptides” value amounted to 1.0.

For the sequence GQGQNSADPKVYPII, in assay [1], the “Rabbit serum linear peptides” value was determined as 0.4 and the “Rabbit serum looped peptides” value came out at 0.5.

Take EARAFQSTPIVVQMT: in assay [1], the “Rabbit serum linear peptides” value came to 0.1 and the “Rabbit serum looped peptides” value worked out at 0.4.

For NSADPKVYPIILRLG, in assay [1], the “Rabbit serum linear peptides” value is on record as 0.1 and the “Rabbit serum looped peptides” value turned out to be 0.4.

With MGQGQNSADPKVYPI, in assay [1], the “Rabbit serum linear peptides” value came out at 0.1 and the “Rabbit serum looped peptides” value was found to be 0.6.

For LTCISLCSCICTVVQ, in assay [1], the “Rabbit serum linear peptides” value amounted to 0.1 and the “Rabbit serum looped peptides” value was 0.2.

As for LSMARRNLDSLEARA, in assay [1], the “Rabbit serum linear peptides” value stood at 0.0 and the “Rabbit serum looped peptides” value is reported as 0.4.

Consider LLIVLTCISLCSCIC, for which, in assay [1], the “Rabbit serum linear peptides” value is listed as 0.1 and the “Rabbit serum looped peptides” value amounted to 0.5.

As to QLTITRMEDAMGQGQ, in assay [1], the “Rabbit serum linear peptides” value was 0.1 and the “Rabbit serum looped peptides” value is given as 0.4.

As to SMARRNLDSLEARAF, in assay [1], the “Rabbit serum linear peptides” value was 0.1 and the “Rabbit serum looped peptides” value is 0.4.

LSLSMARRNLDSLEA: in assay [1], the “Rabbit serum linear peptides” value was determined as 0.1 and the “Rabbit serum looped peptides” value came to 0.3.

Regarding DAMGQGQNSADPKVY, in assay [1], the “Rabbit serum linear peptides” value amounted to 0.3 and the “Rabbit serum looped peptides” value is recorded as 0.4.

In the case of LHLVDPQIQLTITRM, in assay [1], the “Rabbit serum linear peptides” value stood at 0.5 and the “Rabbit serum looped peptides” value came to 0.6.

Regarding DSLEARAFQSTPIVV, in assay [1], the “Rabbit serum linear peptides” value is recorded as 0.1 and the “Rabbit serum looped peptides” value was found to be 0.5.

HLVDPQIQLTITRME: in assay [1], the “Rabbit serum linear peptides” value was 0.1 and the “Rabbit serum looped peptides” value worked out at 0.3.

As to VDPQIQLTITRMEDA, in assay [1], the “Rabbit serum linear peptides” value stood at 0.0 and the “Rabbit serum looped peptides” value worked out at 0.4.

As to PQIQLTITRMEDAMG, in assay [1], the “Rabbit serum linear peptides” value was 0.0 and the “Rabbit serum looped peptides” value is given as 0.2.

As for SADPKVYPIILRLGS, in assay [1], the “Rabbit serum linear peptides” value is given as 0.1 and the “Rabbit serum looped peptides” value worked out at 0.4.

As for EDAMGQGQNSADPKV, in assay [1], the “Rabbit serum linear peptides” value is 0.6 and the “Rabbit serum looped peptides” value was 0.5.

As for TCISLCSCICTVVQR, in assay [1], the “Rabbit serum linear peptides” value was found to be 0.0 and the “Rabbit serum looped peptides” value was found to be 0.5.

On to VLTCISLCSCICTVV, for which, in assay [1], the “Rabbit serum linear peptides” value was determined as 0.0 and the “Rabbit serum looped peptides” value was 0.4.

For DPKVYPIILRLGSQL, in assay [1], the “Rabbit serum linear peptides” value is given as 0.1 and the “Rabbit serum looped peptides” value worked out at 0.4.

SNKPHVLEDPCKVQH: in assay [1], the “Rabbit serum linear peptides” value was determined as 0.8 and the “Rabbit serum looped peptides” value is 0.4.

As to ARRNLDSLEARAFQS, in assay [1], the “Rabbit serum linear peptides” value worked out at 0.1 and the “Rabbit serum looped peptides” value is 0.5.

Turning to QIQLTITRMEDAMGQ, in assay [1], the “Rabbit serum linear peptides” value worked out at 0.1 and the “Rabbit serum looped peptides” value worked out at 0.2.

In the case of MKLLIVLTCISLCSC, in assay [1], the “Rabbit serum linear peptides” value was found to be 0.1 and the “Rabbit serum looped peptides” value worked out at 0.5.

In the case of RAFQSTPIVVQMTKL, in assay [1], the “Rabbit serum linear peptides” value is given as 0.1 and the “Rabbit serum looped peptides” value worked out at 0.7.

Turning to QLSLSMARRNLDSLE, in assay [1], the “Rabbit serum linear peptides” value is 0.1 and the “Rabbit serum looped peptides” value was 0.3.

With PIVVQMTKLATTEEL, in assay [1], the “Rabbit serum linear peptides” value amounted to 0.1 and the “Rabbit serum looped peptides” value is given as 0.6.

With ILRLGSQLSLSMARR, in assay [1], the “Rabbit serum linear peptides” value is 0.1 and the “Rabbit serum looped peptides” value was 0.7.

In the case of SLSMARRNLDSLEAR, in assay [1], the “Rabbit serum linear peptides” value is 0.1 and the “Rabbit serum looped peptides” value came out at 0.4.

FQSTPIVVQMTKLAT: in assay [1], the “Rabbit serum linear peptides” value is 0.1 and the “Rabbit serum looped peptides” value came out at 0.6.

With KVYPIILRLGSQLSL, in assay [1], the “Rabbit serum linear peptides” value was 1.8 and the “Rabbit serum looped peptides” value was 0.5.

As for LEARAFQSTPIVVQM, in assay [1], the “Rabbit serum linear peptides” value is on record as 0.1 and the “Rabbit serum looped peptides” value stood at 0.5.

IILRLGSQLSLSMAR: in assay [1], the “Rabbit serum linear peptides” value is reported as 0.6 and the “Rabbit serum looped peptides” value is on record as 0.5.

IQLTITRMEDAMGQG: in assay [1], the “Rabbit serum linear peptides” value is listed as 0.0 and the “Rabbit serum looped peptides” value stood at 0.2.

In the case of IVVQMTKLATTEELP, in assay [1], the “Rabbit serum linear peptides” value is reported as 0.2 and the “Rabbit serum looped peptides” value is recorded as 0.4.

Turning to QGQNSADPKVYPIIL, in assay [1], the “Rabbit serum linear peptides” value worked out at 0.1 and the “Rabbit serum looped peptides” value amounted to 0.5.

ADPKVYPIILRLGSQ: in assay [1], the “Rabbit serum linear peptides” value turned out to be 0.4 and the “Rabbit serum looped peptides” value was 0.3.

As to LGSQLSLSMARRNLD, in assay [1], the “Rabbit serum linear peptides” value is reported as 0.1 and the “Rabbit serum looped peptides” value is given as 0.3.

For the sequence ISLCSCICTVVQRCA, in assay [1], the “Rabbit serum linear peptides” value is recorded as 0.1 and the “Rabbit serum looped peptides” value was found to be 0.5.

Take CISLCSCICTVVQRC: in assay [1], the “Rabbit serum linear peptides” value was found to be 0.0 and the “Rabbit serum looped peptides” value was determined as 0.5.

SLCSCICTVVQRCAS: in assay [1], the “Rabbit serum linear peptides” value is 0.1 and the “Rabbit serum looped peptides” value is 0.2.

For LVDPQIQLTITRMED, in assay [1], the “Rabbit serum linear peptides” value amounted to 0.1 and the “Rabbit serum looped peptides” value is on record as 0.2.

As to MDPNQTNVVPPALHL, in assay [1], the “Rabbit serum linear peptides” value was 1.1 and the “Rabbit serum looped peptides” value is 0.1.

For the sequence LDSLEARAFQSTPIV, in assay [1], the “Rabbit serum linear peptides” value was 0.1 and the “Rabbit serum looped peptides” value is recorded as 0.5.

For LIVLTCISLCSCICT, in assay [1], the “Rabbit serum linear peptides” value is given as 0.1 and the “Rabbit serum looped peptides” value is on record as 0.5.

Turning to NLDSLEARAFQSTPI, in assay [1], the “Rabbit serum linear peptides” value is recorded as 0.2 and the “Rabbit serum looped peptides” value worked out at 0.4.

RNLDSLEARAFQSTP: in assay [1], the “Rabbit serum linear peptides” value is listed as 0.3 and the “Rabbit serum looped peptides” value is 0.5.

Turning to MARRNLDSLEARAFQ, in assay [1], the “Rabbit serum linear peptides” value came out at 0.1 and the “Rabbit serum looped peptides” value was 0.5.

Take QNSADPKVYPIILRL: in assay [1], the “Rabbit serum linear peptides” value is 0.1 and the “Rabbit serum looped peptides” value amounted to 0.1.

Consider CASNKPHVLEDPCKV, for which, in assay [1], the “Rabbit serum linear peptides” value is 0.5 and the “Rabbit serum looped peptides” value came to 0.8.

Consider ALHLVDPQIQLTITR, for which, in assay [1], the “Rabbit serum linear peptides” value was 0.5 and the “Rabbit serum looped peptides” value came to 0.5.

As to GSQLSLSMARRNLDS, in assay [1], the “Rabbit serum linear peptides” value came out at 0.1 and the “Rabbit serum looped peptides” value is 0.7.

Turning to AMGQGQNSADPKVYP, in assay [1], the “Rabbit serum linear peptides” value came out at 0.1 and the “Rabbit serum looped peptides” value is listed as 0.6.

For the sequence LRLGSQLSLSMARRN, in assay [1], the “Rabbit serum linear peptides” value amounted to 0.1 and the “Rabbit serum looped peptides” value is listed as 0.5.
